Source: publication PMC12860560, “Chromosome-level genome assembly of Cornus officinalis reveals the evolution of loganin biosynthesis” (Horticulture Research, 2025)

Molecular target: T1, CrLAMT (Catharanthus roseus, UniProt B2KPR3)
T1 construct: gene LAMT; pBI121 vector, expressed in Nicotiana benthamiana
T1 sequence (B2KPR3 1-371): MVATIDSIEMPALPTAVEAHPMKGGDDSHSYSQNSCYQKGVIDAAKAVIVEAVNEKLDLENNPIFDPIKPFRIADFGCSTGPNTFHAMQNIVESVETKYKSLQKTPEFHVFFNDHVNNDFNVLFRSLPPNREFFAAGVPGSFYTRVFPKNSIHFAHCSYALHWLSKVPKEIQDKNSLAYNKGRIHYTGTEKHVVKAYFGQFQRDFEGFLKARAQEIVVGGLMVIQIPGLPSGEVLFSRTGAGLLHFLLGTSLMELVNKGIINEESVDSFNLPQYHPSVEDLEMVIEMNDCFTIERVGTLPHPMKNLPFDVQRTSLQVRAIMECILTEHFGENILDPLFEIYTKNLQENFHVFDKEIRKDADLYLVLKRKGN
Test: HPLC of product loganin
Assay type: cell-based
Conditions: expressed in N. benthamiana; preparation of the HPLC assay not told

In the case of `C[C@@H]1[C@H]2[C@H](O[C@@H]3O[C@H](CO)[C@@H](O)[C@H](O)[C@H]3O)OC=C(C(=O)O)[C@H]2C[C@@H]1O` [loganic acid], the “HPLC of product loganin” value is reported as “production of loganin by CaLAMT, CrLAMT, and CoLAMT using loganic acid as the substrate”.
